{"source": "ChEMBL document CHEMBL1201862", "about": "“PubChem BioAssay data set” (2004)", "key": {"[1]": {"experiment": "THP-1 cell cytotoxicity, dose response, cytotoxicity control for non-replicating M. tuberculosis project (AID 489025)", "format": "functional"}, "[2]": {"molecular_target": "T1, Protein RecA (Mycobacterium tuberculosis, UniProt P9WHJ3)", "T1 sequence (P9WHJ3 whole entry)": "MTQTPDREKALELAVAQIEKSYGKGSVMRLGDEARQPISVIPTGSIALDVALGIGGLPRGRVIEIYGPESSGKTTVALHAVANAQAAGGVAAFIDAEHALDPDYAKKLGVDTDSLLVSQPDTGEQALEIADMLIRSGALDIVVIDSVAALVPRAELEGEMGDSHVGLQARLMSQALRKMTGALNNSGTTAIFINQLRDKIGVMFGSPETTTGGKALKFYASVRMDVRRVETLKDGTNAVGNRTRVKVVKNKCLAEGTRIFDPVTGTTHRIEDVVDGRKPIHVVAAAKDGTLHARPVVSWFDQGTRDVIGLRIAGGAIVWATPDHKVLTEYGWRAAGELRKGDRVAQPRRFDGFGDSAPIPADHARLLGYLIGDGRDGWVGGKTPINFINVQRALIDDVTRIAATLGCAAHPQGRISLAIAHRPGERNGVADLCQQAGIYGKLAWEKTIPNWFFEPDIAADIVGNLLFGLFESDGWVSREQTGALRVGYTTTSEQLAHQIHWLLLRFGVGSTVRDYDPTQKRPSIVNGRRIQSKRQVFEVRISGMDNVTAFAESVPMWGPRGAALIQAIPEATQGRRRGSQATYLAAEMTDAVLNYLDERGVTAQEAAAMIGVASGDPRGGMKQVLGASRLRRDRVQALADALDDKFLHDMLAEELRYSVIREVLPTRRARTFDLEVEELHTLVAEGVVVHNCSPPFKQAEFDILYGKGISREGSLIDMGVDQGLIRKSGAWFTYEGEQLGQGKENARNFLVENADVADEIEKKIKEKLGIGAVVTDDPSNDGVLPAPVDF", "experiment": "GFP-RecA MOA-DTT Measured in Biochemical System Using Plate Reader - 2047-05_Inhibitor_Dose_DryPowder_Activity. [Related pubchem assays (depositor defined):AID2223]", "design": "species or system Mycobacterium tuberculosis H37Rv"}, "[3]": {"experiment": "Vero E6 cell cytotoxicity, dose response, cytotoxicity control for non-replicating M. tuberculosis project, secondary assay (AID 492998)", "format": "functional, VeroE6", "details": "Vero C1008"}, "[4]": {"molecular_target": "Nonstructural protein 1 (Influenza A virus, UniProt Q194T2)", "sequence (Q194T2 whole entry)": "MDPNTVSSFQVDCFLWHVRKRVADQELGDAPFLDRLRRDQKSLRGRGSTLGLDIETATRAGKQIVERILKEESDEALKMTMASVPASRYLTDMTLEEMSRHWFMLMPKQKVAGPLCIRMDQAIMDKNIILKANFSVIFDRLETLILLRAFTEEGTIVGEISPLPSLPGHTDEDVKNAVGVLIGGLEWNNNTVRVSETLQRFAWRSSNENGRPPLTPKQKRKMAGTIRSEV", "format": "functional, Influenza A virus (A/California/07/2009(H1N1))"}, "[5]": {"experiment": "Intein inhibitors as potential Tuberculosis drugs, a cytotoxicity screen. [Related pubchem assays (depositor defined):AID2221, AID2223, AID434968, AID435010, AID449749, AID449750, AID489010]", "format": "functional"}, "[6]": {"molecular_target": "T2, Replicative DNA helicase DnaB (Mycobacterium tuberculosis, UniProt P9WMR3)", "T2 sequence (P9WMR3 whole entry)": "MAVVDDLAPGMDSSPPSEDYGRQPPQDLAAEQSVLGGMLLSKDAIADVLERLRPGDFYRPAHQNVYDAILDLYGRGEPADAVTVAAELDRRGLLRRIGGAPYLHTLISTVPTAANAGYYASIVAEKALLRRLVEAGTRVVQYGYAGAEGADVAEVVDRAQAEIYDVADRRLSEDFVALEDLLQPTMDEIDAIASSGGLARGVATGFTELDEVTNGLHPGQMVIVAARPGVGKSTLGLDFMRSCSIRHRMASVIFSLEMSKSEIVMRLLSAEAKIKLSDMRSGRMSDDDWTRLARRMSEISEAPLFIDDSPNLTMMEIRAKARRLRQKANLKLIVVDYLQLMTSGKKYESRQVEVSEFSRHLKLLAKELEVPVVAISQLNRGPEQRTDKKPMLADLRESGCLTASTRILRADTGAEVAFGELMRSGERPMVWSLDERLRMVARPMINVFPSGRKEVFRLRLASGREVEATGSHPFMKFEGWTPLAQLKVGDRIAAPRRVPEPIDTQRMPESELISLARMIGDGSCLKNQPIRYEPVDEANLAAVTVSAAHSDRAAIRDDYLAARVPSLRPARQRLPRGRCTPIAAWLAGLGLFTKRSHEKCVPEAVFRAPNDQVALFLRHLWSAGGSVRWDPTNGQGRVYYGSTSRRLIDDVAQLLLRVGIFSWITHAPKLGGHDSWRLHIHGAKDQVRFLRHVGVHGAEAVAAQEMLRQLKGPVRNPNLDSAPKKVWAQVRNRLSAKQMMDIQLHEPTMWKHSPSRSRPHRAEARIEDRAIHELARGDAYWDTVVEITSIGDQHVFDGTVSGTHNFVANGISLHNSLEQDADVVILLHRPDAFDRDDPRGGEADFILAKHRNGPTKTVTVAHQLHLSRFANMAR", "experiment": "DnaB Intein secondary assay Measured in Biochemical System Using Plate Reader - 2047-04_Inhibitor_Dose_DryPowder_Activity. [Related pubchem assays (depositor defined):AID2223]"}, "[7]": {"molecular_target": "T3, Microphthalmia-associated transcription factor (Homo sapiens, UniProt O75030)", "T3 sequence (O75030 whole entry)": "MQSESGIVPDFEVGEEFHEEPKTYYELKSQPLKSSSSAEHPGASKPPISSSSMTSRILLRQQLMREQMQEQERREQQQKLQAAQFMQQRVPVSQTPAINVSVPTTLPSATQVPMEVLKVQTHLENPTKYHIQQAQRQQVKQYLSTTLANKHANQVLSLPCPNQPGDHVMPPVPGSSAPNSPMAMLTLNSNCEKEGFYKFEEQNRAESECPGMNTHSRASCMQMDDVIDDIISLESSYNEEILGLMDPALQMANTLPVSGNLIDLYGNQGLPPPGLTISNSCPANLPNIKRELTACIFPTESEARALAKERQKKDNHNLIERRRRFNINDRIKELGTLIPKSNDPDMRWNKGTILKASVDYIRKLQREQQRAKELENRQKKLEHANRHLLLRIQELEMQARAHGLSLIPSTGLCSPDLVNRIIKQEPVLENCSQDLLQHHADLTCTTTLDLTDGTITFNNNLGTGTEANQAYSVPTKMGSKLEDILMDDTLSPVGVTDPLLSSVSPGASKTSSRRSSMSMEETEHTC", "experiment": "reducers of TRPM1 reporter luminescence, concentration series – cell-based, SK-MEL-5, cherry-picked, set 3, MITF inhibitor project, dose response (AID 493073);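 note: SK-MEL-5 melanoma cells with luciferase driven by the MITF target TRPM1 promoter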", "format": "functional"}, "[8]": {"molecular_target": "T1, Protein RecA", "experiment": "RecA Intein Measured in Biochemical System Using Plate Reader - 2047-02_Inhibitor_Dose_DryPowder_Activity. [Related pubchem assays (depositor defined):AID2223]", "design": "species or system Mycobacterium tuberculosis H37Rv"}, "[9]": {"experiment": "cells", "format": "functional"}, "[10]": {"molecular_target": "T2, Replicative DNA helicase DnaB", "experiment": "DnaB intein splicing inhibitors, dose response, biochemical, cell-free fluorescence (AID 449749)", "format": "functional"}, "[11]": {"molecular_target": "T1, Protein RecA", "experiment": "Fluorescence Cell-Free Homogeneous Dose Retest to Identify Inhibitors of RecA-Intein Splicing Activity. [Related pubchem assays (depositor defined):AID2097, AID2223, AID489010, AID492950]", "format": "functional"}, "[12]": {"molecular_target": "T4, Tyrosine-protein phosphatase non-receptor type 22 (Homo sapiens, UniProt Q9Y2R2)", "T4 sequence (Q9Y2R2 whole entry)": "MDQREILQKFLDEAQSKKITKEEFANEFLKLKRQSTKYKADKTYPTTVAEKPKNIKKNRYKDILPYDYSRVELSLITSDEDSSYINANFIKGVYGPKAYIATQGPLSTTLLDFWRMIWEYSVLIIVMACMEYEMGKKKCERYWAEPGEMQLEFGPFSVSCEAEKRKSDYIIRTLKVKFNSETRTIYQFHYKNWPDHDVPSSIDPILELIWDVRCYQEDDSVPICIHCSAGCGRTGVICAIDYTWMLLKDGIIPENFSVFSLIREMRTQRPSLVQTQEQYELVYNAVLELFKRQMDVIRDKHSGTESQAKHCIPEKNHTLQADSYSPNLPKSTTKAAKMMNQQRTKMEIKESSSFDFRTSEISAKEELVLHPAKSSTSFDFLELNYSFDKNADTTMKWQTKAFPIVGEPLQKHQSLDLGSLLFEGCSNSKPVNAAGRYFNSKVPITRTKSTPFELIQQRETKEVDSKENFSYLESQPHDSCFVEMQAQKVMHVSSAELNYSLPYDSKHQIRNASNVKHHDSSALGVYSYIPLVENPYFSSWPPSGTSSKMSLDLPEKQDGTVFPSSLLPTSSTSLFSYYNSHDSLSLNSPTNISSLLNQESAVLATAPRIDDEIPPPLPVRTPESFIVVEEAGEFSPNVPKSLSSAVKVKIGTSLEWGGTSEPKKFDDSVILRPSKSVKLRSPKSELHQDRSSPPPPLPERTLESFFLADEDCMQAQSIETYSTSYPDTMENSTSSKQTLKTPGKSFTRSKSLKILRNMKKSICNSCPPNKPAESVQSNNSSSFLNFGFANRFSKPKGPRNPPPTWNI", "experiment": "SAR LYP1 Fluorescent Assay using pCAP substrate for In Vitro dose response studies - Set 2. [Related pubchem assays (depositor defined):AID1779, AID1784, AID2135, AID449727]", "format": "functional"}, "[13]": {"molecular_target": "Tyrosine-protein phosphatase non-receptor type 12 (Homo sapiens, UniProt Q05209)", "sequence (Q05209 whole entry)": "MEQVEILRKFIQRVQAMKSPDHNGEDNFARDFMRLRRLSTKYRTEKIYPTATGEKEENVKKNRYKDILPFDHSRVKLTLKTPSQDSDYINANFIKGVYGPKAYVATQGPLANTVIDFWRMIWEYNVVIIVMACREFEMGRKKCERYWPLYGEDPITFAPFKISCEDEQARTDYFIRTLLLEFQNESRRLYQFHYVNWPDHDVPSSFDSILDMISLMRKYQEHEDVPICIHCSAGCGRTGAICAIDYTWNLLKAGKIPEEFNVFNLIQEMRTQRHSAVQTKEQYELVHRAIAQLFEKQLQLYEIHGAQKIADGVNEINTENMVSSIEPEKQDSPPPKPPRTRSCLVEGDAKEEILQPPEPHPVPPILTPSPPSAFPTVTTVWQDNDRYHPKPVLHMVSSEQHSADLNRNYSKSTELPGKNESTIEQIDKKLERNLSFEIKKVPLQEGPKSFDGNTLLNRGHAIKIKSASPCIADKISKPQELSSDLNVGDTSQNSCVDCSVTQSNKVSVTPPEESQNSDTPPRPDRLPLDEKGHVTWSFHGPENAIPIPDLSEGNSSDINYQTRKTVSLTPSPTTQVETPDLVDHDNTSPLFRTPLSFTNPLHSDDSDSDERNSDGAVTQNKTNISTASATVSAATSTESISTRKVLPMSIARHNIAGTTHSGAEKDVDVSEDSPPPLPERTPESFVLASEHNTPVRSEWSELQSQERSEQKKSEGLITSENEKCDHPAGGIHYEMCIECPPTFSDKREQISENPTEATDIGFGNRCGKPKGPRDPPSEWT", "experiment": "SAR Selectivity Analysis of small molecule inhibitors of PEST using pCAP in a fluorescence assay. [Related pubchem assays (depositor defined):AID1779, AID1784, AID2135]", "format": "functional"}, "[14]": {"molecular_target": "T4, Tyrosine-protein phosphatase non-receptor type 22", "experiment": "SAR LYP1 Fluorescent Assay using OMFP substrate for In Vitro dose response studies - Set 3. [Related pubchem assays (depositor defined):AID1779, AID1784, AID2140, AID2686]", "format": "functional"}, "[15]": {"molecular_target": "T5, Tyrosine-protein phosphatase non-receptor type 7 (Homo sapiens, UniProt P35236)", "T5 sequence (P35236 whole entry)": "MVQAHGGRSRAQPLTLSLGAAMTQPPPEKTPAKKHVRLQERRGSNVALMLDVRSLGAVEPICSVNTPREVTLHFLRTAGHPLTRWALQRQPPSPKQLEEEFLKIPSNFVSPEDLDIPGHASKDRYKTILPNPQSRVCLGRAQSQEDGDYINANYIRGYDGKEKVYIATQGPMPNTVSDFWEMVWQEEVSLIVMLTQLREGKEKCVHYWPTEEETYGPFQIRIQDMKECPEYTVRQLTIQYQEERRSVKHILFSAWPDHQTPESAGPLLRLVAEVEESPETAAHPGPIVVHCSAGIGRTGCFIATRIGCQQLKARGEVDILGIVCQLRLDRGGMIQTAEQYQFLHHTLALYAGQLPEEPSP", "experiment": "inhibition of hematopoietic tyrosine phosphatase HePTP – biochemical, set 2, SAR follow-up (AID 449736)", "format": "functional"}, "[16]": {"molecular_target": "T4, Tyrosine-protein phosphatase non-receptor type 22", "experiment": "inhibition of lymphoid tyrosine phosphatase LYP – biochemical, pCAP fluorogenic substrate, fluorescence, set 3, SAR follow-up (AID 449727)", "format": "functional"}, "[17]": {"molecular_target": "T4, Tyrosine-protein phosphatase non-receptor type 22", "experiment": "PubChem AID 2135"}, "[18]": {"molecular_target": "T4, Tyrosine-protein phosphatase non-receptor type 22", "experiment": "PubChem AID 2140"}, "[19]": {"molecular_target": "T4, Tyrosine-protein phosphatase non-receptor type 22", "experiment": "SAR LYP1 Fluorescent Assay using OMFP substrate for In Vitro dose response studies - Set 2. [Related pubchem assays (depositor defined):AID1779, AID1784, AID2140, AID449726, AID488869]", "format": "functional"}}, "note": "The source made the active and inactive calls.", "data": [{"smiles": "Cc1ccccc1-n1ncc2c([N+](=O)[O-])cc([N+](=O)[O-])cc21", "values": [{"measurement": "CC50", "setting": "[1]", "value": "> 40 µM (active)"}, {"measurement": "AC50", "setting": "[2]", "value": "232 µM (active)"}, {"measurement": "CC50", "setting": "[3]", "value": "> 20 µM (active)"}, {"measurement": "IC50", "setting": "[4]", "value": "31.1 µM (active)"}, {"measurement": "CC50", "setting": "[5]", "value": "30.8 µM (active)"}, {"measurement": "AC50", "setting": "[6]", "value": "5.7 µM (active)"}, {"measurement": "AC50", "setting": "[7]", "value": "8.7 µM (active)"}, {"measurement": "AC50", "setting": "[8]", "value": "2.19 µM (active)"}, {"measurement": "IC50", "setting": "[9]", "value": "0.95 µM (active)"}, {"measurement": "AC50", "setting": "[10]", "value": "3.15 µM (active)"}, {"measurement": "EC50", "setting": "[11]", "value": "0.911 µM (active)"}]}, {"smiles": "COc1cc(/C=C(\\C#N)c2ccc(F)cc2)ccc1OCc1ccc(C(=O)O)cc1", "values": [{"measurement": "IC50", "setting": "[12]", "value": "33.9 µM (active)"}, {"measurement": "IC50", "setting": "[13]", "value": "22.1 µM (active)"}, {"measurement": "IC50", "setting": "[14]", "value": "94.2 µM (active)"}, {"measurement": "IC50", "setting": "[15]", "value": "7.01 µM (active)"}, {"measurement": "IC50", "setting": "[16]", "value": "61.2 µM (active)"}, {"measurement": "IC50", "setting": "[17]", "value": "59.2 µM (active)"}, {"measurement": "IC50", "setting": "[18]", "value": "> 100 µM (inactive)"}, {"measurement": "IC50", "setting": "[19]", "value": "35.5 µM (active)"}]}]}
